According to PubChem BioAssay (NCI):
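48-hour exposure; five concentrations; linearly interpolated endpoints. GI50 marks 50% less growth. TGI denotes the concentration required for complete inhibition of growth.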

How the values were obtained:
Assay in all cases: NCI tumour cell line growth inhibition, 48 h
786-0 renal = tested on: 786-0 renal
A498 renal = tested on: A498 renal
A549 NSCLC = tested on: A549 NSCLC
ACHN renal = tested on: ACHN renal
BT-549 breast = tested on: BT-549 breast
CAKI-1 renal = tested on: CAKI-1 renal
CCRF-CEM leukemia = tested on: CCRF-CEM leukemia
COLO 205 colon = tested on: COLO 205 colon
DU-145 prostate = tested on: DU-145 prostate
EKVX NSCLC = tested on: EKVX NSCLC
HCC-2998 colon = tested on: HCC-2998 colon
HCT-116 colon = tested on: HCT-116 colon
HCT-15 colon = tested on: HCT-15 colon
HL-60(TB) leukemia = tested on: HL-60(TB) leukemia
HOP-62 NSCLC = tested on: HOP-62 NSCLC
HOP-92 NSCLC = tested on: HOP-92 NSCLC
HS 578T breast = tested on: HS 578T breast
HT29 colon = tested on: HT29 colon
IGROV1 ovarian = tested on: IGROV1 ovarian
K-562 leukemia = tested on: K-562 leukemia
KM12 colon = tested on: KM12 colon
LOX IMVI melanoma = tested on: LOX IMVI melanoma
M14 melanoma = tested on: M14 melanoma
MALME-3M melanoma = tested on: MALME-3M melanoma
MCF7 breast = tested on: MCF7 breast
MDA-MB-231 breast = tested on: MDA-MB-231 breast
MDA-MB-435 = tested on: MDA-MB-435
MOLT-4 leukemia = tested on: MOLT-4 leukemia
NCI-H226 lung = tested on: NCI-H226 lung
NCI-H23 lung = tested on: NCI-H23 lung
NCI-H460 lung = tested on: NCI-H460 lung
NCI-H522 lung = tested on: NCI-H522 lung
NCI/ADR-RES ovarian = tested on: NCI/ADR-RES ovarian
OVCAR-3 ovarian = tested on: OVCAR-3 ovarian
OVCAR-4 ovarian = tested on: OVCAR-4 ovarian
OVCAR-5 ovarian = tested on: OVCAR-5 ovarian
OVCAR-8 ovarian = tested on: OVCAR-8 ovarian
PC-3 prostate = tested on: PC-3 prostate
RPMI-8226 leukemia = tested on: RPMI-8226 leukemia
RXF 393 renal = tested on: RXF 393 renal
SF-268 CNS = tested on: SF-268 CNS
SF-295 CNS = tested on: SF-295 CNS
SF-539 CNS = tested on: SF-539 CNS
SK-MEL-2 melanoma = tested on: SK-MEL-2 melanoma
SK-MEL-28 melanoma = tested on: SK-MEL-28 melanoma
SK-MEL-5 melanoma = tested on: SK-MEL-5 melanoma
SK-OV-3 ovarian = tested on: SK-OV-3 ovarian
SN12C renal = tested on: SN12C renal
SNB-19 CNS = tested on: SNB-19 CNS
SR leukemia = tested on: SR leukemia
SW-620 colon = tested on: SW-620 colon
T-47D breast = tested on: T-47D breast
TK-10 renal = tested on: TK-10 renal
U251 CNS = tested on: U251 CNS
UACC-257 melanoma = tested on: UACC-257 melanoma
UACC-62 melanoma = tested on: UACC-62 melanoma
UO-31 renal = tested on: UO-31 renal

## C/C(Cc1ccc(Cl)cc1)=C(\c1ccc(OCCN2CCCCCC2)cc1)c1ccc(OC(=O)c2ccccc2)cc1
786-0 renal
  GI50: 2990 nM
  TGI: 9.44 µM
A498 renal
  GI50: 5.37 µM
  TGI: 11.4 µM
A549 NSCLC
  GI50: 4.27 µM
  TGI: 12.6 µM
ACHN renal
  GI50: 5.77 µM
  TGI: 12.8 µM
BT-549 breast
  GI50: 6.27 µM
  TGI: 12.7 µM
CAKI-1 renal
  GI50: 3.08 µM
  TGI: 10.6 µM
CCRF-CEM leukemia
  GI50: 1120 nM
  TGI: 3.79 µM
COLO 205 colon
  GI50: 1710 nM
  TGI: 7.34 µM
DU-145 prostate
  GI50: 4.26 µM
  TGI: 11.1 µM
EKVX NSCLC
  GI50: 4.32 µM
  TGI: 16.6 µM
HCC-2998 colon
  GI50: 1380 nM
  TGI: 3.53 µM
HCT-116 colon
  GI50: 1340 nM
  TGI: 4.54 µM
HCT-15 colon
  GI50: 1730 nM
  TGI: 7.53 µM
HL-60(TB) leukemia
  GI50: 1620 nM
  TGI: 9.03 µM
HOP-62 NSCLC
  GI50: 5.98 µM
  TGI: 12.3 µM
HOP-92 NSCLC
  GI50: 1100 nM
  TGI: 4.43 µM
HS 578T breast
  GI50: 4.29 µM
  TGI: 14.4 µM
HT29 colon
  GI50: 1640 nM
  TGI: 5.75 µM
IGROV1 ovarian
  GI50: 2720 nM
  TGI: 10.3 µM
K-562 leukemia
  GI50: 1550 nM
  TGI: 5.88 µM
KM12 colon
  GI50: 2360 nM
  TGI: 9.23 µM
LOX IMVI melanoma
  GI50: 1250 nM
  TGI: 3.22 µM
M14 melanoma
  GI50: 1010 nM
  TGI: 2360 nM
MALME-3M melanoma
  GI50: 1760 nM
  TGI: 6.56 µM
MCF7 breast
  GI50: 358 nM
  TGI: 6.92 µM
MDA-MB-231 breast
  GI50: 2150 nM
  TGI: 8.22 µM
MDA-MB-435
  GI50: 2650 nM
  TGI: 9.27 µM
MOLT-4 leukemia
  GI50: 1290 nM
  TGI: 5.95 µM
NCI-H226 lung
  GI50: 8.45 µM
  TGI: 17.5 µM
NCI-H23 lung
  GI50: 4.69 µM
  TGI: 12.6 µM
NCI-H460 lung
  GI50: 1610 nM
  TGI: 5.23 µM
NCI-H522 lung
  GI50: 5.78 µM
  TGI: 12.9 µM
NCI/ADR-RES ovarian
  GI50: 3.24 µM
  TGI: 11.3 µM
OVCAR-3 ovarian
  GI50: 3.78 µM
  TGI: 10.2 µM
OVCAR-4 ovarian
  GI50: 1880 nM
  TGI: 8.51 µM
OVCAR-5 ovarian
  GI50: 4.64 µM
  TGI: 11.7 µM
OVCAR-8 ovarian
  GI50: 2850 nM
  TGI: 9.35 µM
PC-3 prostate
  GI50: 1700 nM
  TGI: 7.29 µM
RPMI-8226 leukemia
  GI50: 1160 nM
  TGI: 3.28 µM
RXF 393 renal
  GI50: 2490 nM
  TGI: 9.15 µM
SF-268 CNS
  GI50: 3.03 µM
  TGI: 10.7 µM
SF-295 CNS
  GI50: 2270 nM
  TGI: 8.48 µM
SF-539 CNS
  GI50: 5.18 µM
  TGI: 11.4 µM
SK-MEL-2 melanoma
  GI50: 6.92 µM
  TGI: 14 µM
SK-MEL-28 melanoma
  GI50: 1150 nM
  TGI: 2940 nM
SK-MEL-5 melanoma
  GI50: 2300 nM
  TGI: 8.48 µM
SK-OV-3 ovarian
  GI50: 5.8 µM
  TGI: 13.2 µM
SN12C renal
  GI50: 3.19 µM
  TGI: 10.3 µM
SNB-19 CNS
  GI50: 5.29 µM
  TGI: 14.6 µM
SR leukemia
  GI50: 1250 nM
  TGI: 3.8 µM
SW-620 colon
  GI50: 2520 nM
  TGI: 9.7 µM
T-47D breast
  GI50: 1430 nM
  TGI: 9.73 µM
TK-10 renal
  GI50: 6.03 µM
  TGI: 13.3 µM
U251 CNS
  GI50: 2610 nM
  TGI: 8.96 µM
UACC-257 melanoma
  GI50: 6.18 µM
  TGI: 13 µM
UACC-62 melanoma
  GI50: 1300 nM
  TGI: 3.9 µM
UO-31 renal
  GI50: 1390 nM
  TGI: 7.3 µM
